Key:
[1] = system: SUPB15 cells; experiment: Apoptosis kit (ANNEXIN V, PI) flow cytometry, SUPB15; assay type: cell-based; conditions: 3 μM, 1 μM, 24 hours, vs DMSO
Protocol: 1.2 After treating NALM6 and SUPB15 cells respectively with GZD824 (3 μM, 1 μM) and DMSO of different concentrations for 24 hours, apoptosis was detected using an apoptosis kit (ANNEXIN V, PI). Please refer to FIG. 2 for the results. After treating the two types of cells NALM6 and SUPB15 respectively with GZD824 of different concentrations (3 μM/L, 1 μM/L) for 24 hours, the cells were stained with the apoptosis kit (ANNEXIN V, PI), and apoptosis was detected with flow cytometry.

[2] = system: CCND1 gene expression; experiment: Fluorescence quantitative PCR in NALM6 cells, CCND1; assay type: cell-based; conditions: 3 μM/L, 24 hours, vs DMSO
Protocol: 5.2 After being treated with 3 μM/L GZD824 and DMSO for 24 hours, NALM6 cells were collected to 1 ml TRIzol to extract RNA and reversely transcribed into cDNA. The expressions of four genes, i.e. BCL-XL, CCND1, CDK4 and CCKN1A, in these two groups of cells were detected with the fluorescence quantitative PCR method. […] From the molecular perspective, the mechanism of GZD824 killing leukemia cells can be explained. For the experimental results, please refer to FIG. 14.

[3] = system: normal B cells from a healthy donor; experiment: Apoptosis of B cells from a healthy donor; assay type: cell-based, human; conditions: 1 μM/L, 24 hours, vs DMSO
Protocol: 2.2 Killing of B cells by GZD824. Marrow puncture sample from normal donator was separated with lymphocyte separation fluid to obtain normal leucocytes, which are separated with magnetic beads to obtain the normal B cells. After co-culturing GZD824 (1 μM/L) with B cells from a healthy donor for 24 hours, the apoptosis is detected with an apoptosis kit (ANNEXIN V, PI).

[4] = system: primary pre-B ALL PDX in immunodeficient mouse (NSI); experiment: PDX mouse model, spleen size and weight; assay type: in vivo; conditions: two weeks
Description: 3.1 According to the conventional method, the primary leukemia cells from patients were transplanted to immunodeficient mouse (NSI) to construct PDX mouse model. Two months after the transplantation, leukemia cells from patients account for over 95% of the mouse spleen. 1×10^6 leukemia cells originated from the spleen of the PDX mouse (P #1, P #2 and P #3) were transplanted through caudal vein to the NSI mouse bodies of eight weeks old and treated with a semilethal irradiation dose. The mice were divided into three groups with three mice in each group. When the ratio of human CD45 reaches 1%±0.2% of peripheral blood leukocyte of PDX mice by flow cytometry, the PDX mice were treated with GZD824 (25 mg/kg), Imatinib (50 mg/kg) and DMSO respectively for two weeks and then executed. […] Please refer to FIG. 6 for the results. […] 3.2 The primary leukemia cells from patients were transplanted to immunodeficient mouse (NSI) to construct PDX mouse model. 1×10^6 leukemia cells originated from PDX mouse (P #4 and P #5) were transplanted through caudal vein to the NSI mouse bodies of eight weeks old and treated with semilethal irradiation dose. The mice were divided into three groups with three mice in each group. […]

[5] = system: human primary leukemia cells from P #2 PDX mouse; experiment: Apoptosis of human primary leukemia cells from P #2 PDX mouse blood, spleen and marrow; assay type: cell-based; conditions: P #2 PDX cells; 1 μM/L, 24 hours
Protocol: 6.1 Human primary leukemia cells were collected from P #2 PDX mouse blood, spleen and marrow and the leukemia cells originated from these three different mouse organs were co-cultured with 1 μM/L GZD824 or DMSO for 24 hours. The ratios of ANNEXIN V positive cells were analyzed by statistical methods. […] Please refer to FIG. 16 for the results.

[6] = system: human primary leukemia cells from P #1 PDX mouse spleen; experiment: Apoptosis of human primary leukemia cells from P #1 PDX mouse spleen, with and without IGF-1; assay type: cell-based; conditions: P #1 PDX spleen cells; GZD824 1 μM/L, 24 hours, vs DMSO
Protocol: 6.2 Human primary leukemia cells were extracted from P #1 PDX mouse spleen and co-cultured with DMSO, GZD824 (1 μM/L), IGF-1 (10 ng/mL), or GZD824 (1 μM/L) and IGF-1 (10 ng/mL) for 24 hours. The ratios of ANNEXIN V positive cells were analyzed by statistical methods. […] Please refer to FIG. 17 for the experimental results.

[7] = system: NALM6 cells; experiment: Cell cycle by flow cytometry, NALM6; assay type: cell-based; conditions: 3 μM/L, 24 hours, vs DMSO
Protocol: (§1) 1.3 After treating the two types of cells, i.e. NALM6 and SUPB15, with GZD824 (3 μM/L) and DMSO respectively for 24 hours and then treating them with a cell cycle kit, the cell cycle was measured with flow cytometry. […] Please refer to FIG. 3 for the results.

[8] = system: SUPB15 cells; experiment: Cell cycle by flow cytometry, SUPB15; assay type: cell-based; conditions: 3 μM/L, 24 hours, vs DMSO
Protocol: as §1

[9] = system: IRS1; experiment: Immunoblotting of NALM6 cells, IRS1; assay type: cell-based; conditions: 3 μM/L, 1 μM/L, 24 hours
Protocol: 6.3 After treating NALM6 cells with GZD824 of different concentrations (3 μM/L, 1 μM/L) for 24 hours, the cells were collected and lysed. With immunoblotting method, anti-phospho-AKT, AKT and IRS1 antibodies were used to analyze the lysates.

[10] = system: SUPB15 (Ph-positive acute lymphoblastic leukemia cell line); experiment: CCK8 cell activity test, SUPB15; assay type: cell-based; conditions: GZD824 0-3 μM/L, 24 hours
Protocol: 1.1 Two types of cells, i.e. NALM6 (Ph-negative acute lymphoblastic leukemia cell line) and SUPB15 (Ph-positive acute lymphoblastic leukemia cell line), were treated with GZD824 of different concentrations (0-3 μM/L) respectively. After 24 hours, CCK8 is added. The mixture was incubated for 2 hours, and then its absorption value at 450 nm was detected with a microplate reader. […] We plotted a chart of cell activity based on the growth inhibition function of GZD824 on these […] types of cells, which is as shown in FIG. 1.

[11] = system: phosphorylated Rb; experiment: Western blot of NALM6 cells, phospho-Rb; assay type: cell-based; conditions: 3 μM/L, 1 μM/L, 24 hours
Protocol: 5.1. NALM6 cells treated with GZD824 were detected by Western blot method. After treating NALM6 cells with GZD824 of different concentrations (3 μM/L, 1 μM/L) for 24 hours, cells were collected and lysed to extract proteins. According to procedure of Western blot method, the extracted total proteins were analyzed with phospho-SRC, SRC, phospho-STAT3, STAT3, phospho-Rb, Rb and c-Myc antibodies. […] From the protein perspective, GZD824 kills leukemia cells through suppressing SRC/STAT3 signal pathway. Please refer to FIG. 13 for the experimental results.

Cc1ccc(C(=O)Nc2ccc(CN3CCN(C)CC3)c(C(F)(F)F)c2)cc1C#Cc1cnc2[nH]ncc2c1 [GZD824, (3-((1H-pyrazol[3,4-b]pyridine-5-substituted)ethinyl)-4-methyl-N-(4-((4-methylpiperazine-1-substituted)methyl)-3-(trifluoromethyl)phenyl)benzamide)]
apoptosis (ANNEXIN V positive cells) [1]: prominently enhance apoptosis | expression of CCND1 gene [2]: down-regulated | apoptosis of primary B cells [3]: cannot prominently facilitate the apoptosis of the primary B cells | sizes of mouse spleens ([4]; PDX P #1, P #2, P #3, GZD824 25 mg/kg, vs Imatinib (50 mg/kg) and DMSO groups): prominently smaller than those of the other two groups | sizes of mouse spleens ([4]; PDX P #4 and P #5, vs Imatinib and DMSO groups): no prominent difference from those of the other two groups | ratio of apoptosis of leukemia cells originated from the mouse marrow, compared with blood and spleen [5]: lowest | apoptosis of primary leukemia cells (ANNEXIN V positive cells) [6]: facilitate apoptosis of the primary leukemia cells | ratio of cells at G0/G1 phase [7]: increase the ratio of these two types of cells at G0/G1 phase | ratio of cells at G0/G1 phase [8]: increase the ratio of these two types of cells at G0/G1 phase | expression of IRS1 [9]: down-regulate the expression | cell activity (CCK8, absorption at 450 nm) [10]: prominently decrease the cell activity | expression of phosphorylated Rb [11]: suppresses the expression

From patent publication US20200330456A1, “NOVEL APPLICATION OF GZD824 AND PHARMACEUTICALLY ACCEPTABLE SALTS THEREOF IN TREATING DISEASES” (HEALTHQUEST PHARMA INC., priority 2016, published 2020)
